Measurements: paper PMC6768041 (Chemistry Central Journal, 2018)

Experiments:
[1] = tested on: MAO-B; conditions: at high concentrations 100 µM; cited from earlier work
[2] = tested on: MAO-A; conditions: cited from earlier work
[3] = target: T1, hMAO-B (Homo sapiens, UniProt P27338); assay: hMAO-B inhibition, Amplex Red fluorometric assay; format: biochemical; conditions: recombinant hMAO-B, p-tyramine substrate; mean SEM
T1 construct: host or cells: insect cells (BTI-TN-5B14), recombinant baculovirus
T1 sequence (P27338 1-520): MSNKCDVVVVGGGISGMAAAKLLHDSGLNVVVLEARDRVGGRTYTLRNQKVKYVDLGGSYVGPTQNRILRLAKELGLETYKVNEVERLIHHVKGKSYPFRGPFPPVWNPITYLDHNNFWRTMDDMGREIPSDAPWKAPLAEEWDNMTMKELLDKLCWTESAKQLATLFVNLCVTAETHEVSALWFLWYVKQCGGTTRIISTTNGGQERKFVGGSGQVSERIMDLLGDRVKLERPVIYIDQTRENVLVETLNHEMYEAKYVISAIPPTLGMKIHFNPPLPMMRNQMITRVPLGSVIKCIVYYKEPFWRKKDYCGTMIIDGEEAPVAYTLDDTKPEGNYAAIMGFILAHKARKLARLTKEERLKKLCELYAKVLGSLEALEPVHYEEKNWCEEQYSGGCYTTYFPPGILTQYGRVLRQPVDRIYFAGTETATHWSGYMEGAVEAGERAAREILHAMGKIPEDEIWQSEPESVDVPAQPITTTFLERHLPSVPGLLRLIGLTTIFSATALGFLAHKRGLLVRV
Excerpt: (§3) The biological hMAO activity evaluation of the test drugs was examined by quantifying their action on the generation of H2O2 by p-tyramine (general substrate for hMAO-B and hMAO-A), utilizing the Amplex Red MAO assay kit (Sigma USA) and MAO isoforms (microsomal) obtained from insect cells (BTI-TN-5B14) expressed as recombinant baculovirus consisting cDNA probes for hMAO-A or hMAO-B. Reactions were monitored by thin layer chromatography TLC executed over silica gel precoated plates (0.25 mm) purchased from Merck, envisioned of single spots was carried in iodine and UV chambers, in mobile media TLC- Benzene:Chloroform (7:3).
(§4) All synthesized compounds were evaluated for their capability to inhibit the MAO-A and MAO-B isoforms of human MAO by a fluorometric method. The MAO inhibitory property of the test compounds was examined with the recombinant human enzymes using an Amplex Red Monoamine Oxidase Assay Kit (Sigma USA). The incessant peroxidase-linked photometric assay was performed on the fluorometer. […] Distilled water was used as a negative control. In brief, 0.1 mL of sodium phosphate buffer (0.05 M, pH 7.4) with the test new compounds/reference inhibitors in different concentrations and sufficient quantity of recombinant hMAO-A or hMAO-B requisite and in step to complete our investigational protocol with the equal reaction velocity, (hMAO-A: 1.1 mg protein; explicit activity: 150 nmol of p-tyramine oxidized to p-hydroxyphenylacetaldehyde/min/mg protein; hMAO-B: 7.5 mg protein; explicit activity: 22 nmol of p-tyramine changed/min/mg protein) were incubated for 15 min at 37 °C, placed in the dark fluorometric compartment. After incubation, the effect was attained through the addition of 200 mM Amplex Red reagent (final concentrations), 1 mM p-tyramine, and 1 U/mL horseradish peroxidase. Finally, the generation of hydrogen peroxide and, subsequently, of resorufin was measured at 37 °C in fluorescence reader (λemission, 585 nm, λexcitation, 530 nm) after 15 min, by the time fluorescence amplified linearly. All the control experiments were performed concurrently by changing the reference inhibitors and test compounds with suitable dilutions in the solvents. Moreover, the activity of abovementioned evaluated compounds to alter the fluorescence produced in the combination reaction by (e.g. for reacting with Amplex Red reagent directly) non-enzymatic inhibition was identified by addition of these compounds to solutions having just the Amplex Red reagent in a sodium phosphate buffer. […] The fluorescence reading was computed by subtraction of the background activity and was evaluated from wells with all components not including the hMAO isoforms that was substituted by a sodium phosphate buffer solution. All data was processed in Microsoft Excel, to calculate IC50 values.

[4] = Hydrogen peroxide scavenging (H2O2) assay; conditions: mean ± SEM, n = 3; read-out: H2O2 radical scavenging IC50
Experimental: Amongst the reactive oxygen species (ROS), H2O2 is an essential radical as even though it is not lethal of its own accord, but can be changed to further even highly toxic radicals, for instance, OH^• by hypochlorous acid or Fenton reaction by the oxidases enzymes. A solution of H2O2 (40 µM) was added in phosphate buffer saline ([…] pH 7.4). Different quantities of test and references compounds in DMSO were added to 2 mL of hydrogen peroxide solution in buffer solution. Subsequently, upon to 10 min, the absorbance was calculated at 230 nm against a blank solution including phosphate buffer without H2O2 [31]. The percentage of scavenging H2O2 was estimated by the formula in this way: %ScavengingH2O2=AS-AT/Ai×100 where AS is the absorbance of control and AT is the absorbance of the test.

[5] = target: T2, hMAO-A (Homo sapiens, UniProt P21397); assay: hMAO-A inhibition, Amplex Red fluorometric assay; format: biochemical; conditions: for Selectivity index: IC50 (MAO-A)/IC50 (MAO-B); for IC50: recombinant hMAO-A, p-tyramine substrate, mean SEM;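 for all read-outs here: recombinant human MAO-A and MAO-B from baculovirus-infected insect cell microsomes, H2O2 formation detected fluorometrically via Amplex Red with horseradish peroxidase, background from enzyme-free wells subtracted, distilled water negative control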
T2 construct: host or cells: insect cells (BTI-TN-5B14), recombinant baculovirus
T2 sequence (P21397 1-527): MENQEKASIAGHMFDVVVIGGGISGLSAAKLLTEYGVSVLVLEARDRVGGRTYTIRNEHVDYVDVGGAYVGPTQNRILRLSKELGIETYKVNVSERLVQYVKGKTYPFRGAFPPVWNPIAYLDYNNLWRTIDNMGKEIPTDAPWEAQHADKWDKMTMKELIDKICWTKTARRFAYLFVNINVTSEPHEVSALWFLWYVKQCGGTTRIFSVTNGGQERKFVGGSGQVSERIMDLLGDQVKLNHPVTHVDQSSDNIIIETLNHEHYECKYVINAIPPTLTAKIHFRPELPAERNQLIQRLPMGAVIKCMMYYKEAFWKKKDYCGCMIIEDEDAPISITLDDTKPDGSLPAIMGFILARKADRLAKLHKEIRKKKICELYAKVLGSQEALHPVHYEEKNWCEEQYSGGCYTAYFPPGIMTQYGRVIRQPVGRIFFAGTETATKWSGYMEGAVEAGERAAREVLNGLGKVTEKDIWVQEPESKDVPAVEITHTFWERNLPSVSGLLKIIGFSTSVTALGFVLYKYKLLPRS
Excerpt: as §3, §4

[6] = tested on: monoamine oxidase-B; conditions: cited from earlier work
[7] = DPPH radical scavenging assay; conditions: mean ± SEM, n = 3
Experimental: DPPH (2,2-diphenyl-1-picryl-hydrazyl-hydrate) free radical process is an antioxidant assay based on electron-transfer that turns violet color in ethanol. The antioxidant activity was based on free radical scavenging effect towards stable DPPH• radical upon spectrophotometric reaction according to the method reported in the literature. Briefly, solutions of synthesized compounds were prepared in fifty milliliters of various concentrations (25, 50, 75, and 100) µg/mL dissolved in methanol, was added to 5 mL of a 0.004% methanol solution of DPPH. The stock solution was prepared with 0.01% DPPH• in ethanol/water (1:1). While sample solutions were prepared as 5 mL DPPH• solution was mixed with 5 mL ascorbic acid solution then shaken vigorously and kept in the dark at 37 °C. The samples were incubated at the 37 °C temperature for 30 min in the dark chamber subsequently, absorbance was measured. The marketable recognized antioxidant, ascorbic acid was utilized for contrast or as a positive control. Initially, the blank spectrum for ethanol/water was recorded subsequently the spectrophotometric titration was carried out with various concentrations of synthesized compounds. The absorbance was recorded at 517 nm with UV/Vis Epoch ELISA reader, and antioxidant activity was measured as a decrease in absorbance of DPPH•. The IC50 values of free radical DPPH, based on control reading were calculated by the following equation. %inhibition of DPPH radical=Abr-Aar/Abr×100 where Abr is the absorbance prior to reaction and Aar is the absorbance after reaction with DPPH•.

[8] = target: T1, hMAO-B; assay: Enzyme kinetics of MAO-B (Lineweaver–Burk plots); format: biochemical; conditions: several inhibitor concentrations, tyramine substrate
Experimental: (§1) A set of Lineweaver–Burk plots was constructed in the presence and absence of different concentrations of compound 7 and 5 for hMAO-A and hMAO-B respectively. The graph comprises of five plots, every plot raised by quantifying MAO-B and MAO-A catalytic rate at various concentrations of substrate (0.5–5.0 µM).
(§2) Kinetic constants of steady-state (Vmax, maximum rate, and Km, Michaelis constant,) were measured by studying the effects of substrate concentration on the primary rate of reaction of MAO-A or MAO-B in absence and presence of compounds at diverse concentrations. To examine the mode of action by synthesized derivatives all of them were solubilized in dimethyl sulfoxide, with the concentration of 1%, and utilized in a wide concentration range. Construction of Lineweaver–Burk plots illustrated the mode of MAO inhibition. Selectivity index SI (Ki (MAO-A)/Ki (MAO-B)) was also computed. Enzyme kinetics for the interaction of the compounds with the MAO enzymes was computed on the GraphPad Prism 7 software.

[9] = target: T2, hMAO-A; assay: Enzyme kinetics of MAO-A (Lineweaver–Burk plots); format: biochemical; conditions: tyramine substrate
Experimental: as §1, §2

[10] = tested on: rMAO-B; conditions: cited from earlier work
[11] = target: T2, hMAO-A; conditions: cited from earlier work
[12] = tested on: rMAO-A; conditions: cited from earlier work

| IC50 [3] | IC50 [4] | Selectivity index [5] | IC50 [5] | IC50 [7] | melting point | SMILES | other results |
| --- | --- | --- | --- | --- | --- | --- | --- |
| 22.88 ± 0.009 µM | 8.868 ± 0.011 µM | 0.512 | 11.72 ± 0.044 µM | 9.679 ± 0.013 µM |  | O=C(O)/C=C/c1ccc(O)c(O)c1 [Caffeic acid, reference compound] | IC50 [2]: > 1000 µM; Inhibition of MAO-A activity [2]: up to 40.4%; Monoamine oxidase-B inhibition in words [6]: did not produce significant monoamine oxidase-B inhibition |
| 42.34 ± 0.077 µM | 6.292 ± 0.007 µM | 0.209 | 8.87 ± 0.005 µM | 6.39 ± 0.007 µM | 230 to 231 °C | O=C(/C=C/c1ccc(O)c(O)c1)Nc1ccc([N+](=O)[O-])cc1Cl [Compound 1, (E)-N-(2-chloro-4-nitrophenyl)-3-(3,4-dihydroxyphenyl)acrylamide] |  |
| 44.42 ± 0.014 µM | 8.544 ± 0.015 µM | 0.191 | 8.51 ± 0.017 µM | 8.09 ± 0.042 µM | 200 to 202 °C | O=C(/C=C/c1ccc(O)c(O)c1)Nc1ccc(Cl)cc1[N+](=O)[O-] [Compound 2, (E)-N-(4-chloro-2-nitrophenyl)-3-(3,4-dihydroxyphenyl)acrylamide] |  |
| 21.14 ± 0.025 µM | 12.56 ± 0.021 µM | 0.838 | 17.72 ± 0.006 µM | 13.56 ± 0.003 µM |  | O=C(/C=C/c1ccc(O)c(O)c1)Nc1ccc(Br)cc1 [Compound 3, (E)-N-(4-bromophenyl)-3-(3,4-dihydroxyphenyl)acrylamide] |  |
| 57.88 ± 0.029 µM | 9.486 ± 0.017 µM | 0.319 | 18.47 ± 0.007 µM | 9.19 ± 0.001 µM |  | O=C(/C=C/c1ccc(O)c(O)c1)Nc1cccc(F)c1 [Compound 4, (E)-3-(3,4-dihydroxyphenyl)-N-(3-fluorophenyl)acrylamide] |  |
| 10.8 ± 0.024 µM | 17.64 ± 0.005 µM | 4.653 | 50.26 ± 0.035 µM | 20.8 ± 0.003 µM | 176 to 176.3 °C | O=C(/C=C/c1ccc(O)c(O)c1)Nc1cccc2ccccc12 [Compound 5, (E)-3-(3,4-dihydroxyphenyl)-N-(naphthalen-1-yl)acrylamide] | Vmax in Lineweaver–Burk plot (hMAO-B) [8]: same Vmax value at several concentrations |
| 16.25 ± 0.035 µM | 21.69 ± 0.034 µM | 1.252 | 20.36 ± 0.002 µM | 11.34 ± 0.001 µM | 150 to 151 °C | COc1cc(C=O)ccc1OC(=O)/C=C/c1ccc(O)c(O)c1 [Compound 6, (E)-4-formyl-2-methoxyphenyl 3-(3,4-dihydroxyphenyl)acrylate] | MAO isoform selectivity in words ([5]; hMAO-A vs hMAO-B): selective for hMAO-B |
| 24.14 ± 0.017 µM | 12.78 ± 0.024 µM | 0.291 | 7.03 ± 0.022 µM | 11.22 ± 0.012 µM | 161 to 161.7 °C | C=CCc1ccc(OC(=O)/C=C/c2ccc(O)c(O)c2)c(OC)c1 [Compound 7, (E)-4-allyl-2-methoxyphenyl 3-(3,4-dihydroxyphenyl)acrylate] | Mode of inhibition (hMAO-A) [9]: competitive inhibition mode |
| 27.26 ± 0.072 µM | 11.88 ± 0.008 µM | 0.724 | 19.75 ± 0.066 µM | 11.94 ± 0.025 µM | 182 to 182.6 °C | Cc1ccc(C(C)C)cc1OC(=O)/C=C/c1ccc(O)c(O)c1 [Compound 8, (E)-5-isopropyl-2-methylphenyl 3-(3,4-dihydroxyphenyl)acrylate] |  |
| 27.25 ± 0.004 µM | 9.907 ± 0.014 µM | 0.379 | 10.33 ± 0.012 µM | 10.57 ± 0.004 µM | 198 to 198.4 °C | O=C(/C=C/c1ccc(O)c(O)c1)Oc1cccc(O)c1 [Compound 9, (E)-3-hydroxyphenyl 3-(3,4-dihydroxyphenyl)acrylate] |  |
| 12.95 ± 0.046 µM | 11.39 ± 0.042 µM | 1.947 | 25.22 ± 0.015 µM | 11.34 ± 0.078 µM |  | CCNC(=O)/C=C/c1ccc(O)c(O)c1 [Compound 10, (E)-3-(3,4-dihydroxyphenyl)-N-ethylacrylamide] |  |
| 21.48 ± 0.056 µM | 11.34 ± 0.045 µM | 1.233 | 24.34 ± 0.011 µM | 12.95 ± 0.031 µM | 176 to 176.9 °C | O=C(/C=C/c1ccc(O)c(O)c1)Oc1ccc2ccccc2c1 [Compound 11, (E)-naphthalen-2-yl 3-(3,4-dihydroxyphenyl)acrylate] |  |

Further lines, the compound ahead of its results:

| SMILES | IC50 [3] | IC50 [4] | Selectivity index [5] | IC50 [5] | IC50 [7] | melting point | other results |
| --- | --- | --- | --- | --- | --- | --- | --- |
| O=C(/C=C/c1ccc(O)c(O)c1)OCCc1ccccc1 [CAPE, caffeic acid phenethyl ester] |  |  |  |  |  |  | MAO-B inhibition in words [1]: inhibiting MAO-B |
| CC1CCC(C(C)C)C(OC(=O)/C=C/c2ccc(O)c(O)c2)C1 (stereo not shown) [Compound 12, (E)-2-isopropyl-5-methylcyclohexyl 3-(3,4-dihydroxyphenyl)acrylate] | 48.54 ± 0.077 µM | 14.65 ± 0.026 µM | 0.453 | 22.02 ± 0.018 µM | 15.37 ± 0.054 µM |  |  |
| O=c1oc2c(O)c(O)cc3c(=O)oc4c(O)c(O)cc1c4c23 [Ellagic acid] |  |  |  |  |  |  | MAO inhibition value rMAO-B [10]: 412.24 nM rMAO-B |
| O=C(O)c1cc(O)c(O)c(O)c1 [Gallic acid] |  |  |  |  |  |  | MAO inhibition value hMAO-A [11]: 9.49 ± 0.83 hMAO-A µM |
| O=C1O[C@H]([C@@H](O)CO)C(O)=C1O [L-Ascorbic acid, reference compound] |  | 8.12 ± 0.082 µM |  |  |  |  |  |
| O=C(O)c1ccc(O)c(O)c1 [Protocatechuic acid] |  |  |  |  |  |  | MAO inhibition value rMAO-A [12]: 300 µM; MAO inhibition value rMAO-B [10]: 2411 µM |
| O=C(O)/C=C/c1ccccc1 [Trans-Cinnamic acid] |  |  |  |  |  |  | MAO inhibition value rMAO-A [12]: 6.47 ± 0.73 µM; MAO inhibition value rMAO-B [10]: 1.21 ± 0.071 µM |
| O=C(/C=C/c1ccc(O)c(O)c1)O[C@H](Cc1ccc(O)c(O)c1)C(=O)O [rosmarinic acid] |  |  |  |  |  |  | Monoamine oxidase-B inhibition in words [6]: did not produce significant monoamine oxidase-B inhibition |
